Source: patent publication US5750540A, “1,4-di-substituted piperidine derivatives” (Banyu Pharmaceutical Co., Ltd., priority 1995, dated 1998)
Where two headings read alike, the source gives them in different places.

Experiments:
muscarinic M2 receptors = biological target: T1, muscarinic M2 receptors (Rattus norvegicus, UniProt P10980); test: Bradycardia in rats (acetylcholine-induced); assay type: in vivo; details: iv, 5 min, i.v., 5 minutes after administration, 50% inhibition of acetylcholine-induced bradycardia, read-out: Bradycardia ID50
T1 construct: a membrane specimen from the heart was used as the membrane specimen; from tissue; host or cells: rat heart membranes (SD rat)
T1 sequence (P10980 1-466): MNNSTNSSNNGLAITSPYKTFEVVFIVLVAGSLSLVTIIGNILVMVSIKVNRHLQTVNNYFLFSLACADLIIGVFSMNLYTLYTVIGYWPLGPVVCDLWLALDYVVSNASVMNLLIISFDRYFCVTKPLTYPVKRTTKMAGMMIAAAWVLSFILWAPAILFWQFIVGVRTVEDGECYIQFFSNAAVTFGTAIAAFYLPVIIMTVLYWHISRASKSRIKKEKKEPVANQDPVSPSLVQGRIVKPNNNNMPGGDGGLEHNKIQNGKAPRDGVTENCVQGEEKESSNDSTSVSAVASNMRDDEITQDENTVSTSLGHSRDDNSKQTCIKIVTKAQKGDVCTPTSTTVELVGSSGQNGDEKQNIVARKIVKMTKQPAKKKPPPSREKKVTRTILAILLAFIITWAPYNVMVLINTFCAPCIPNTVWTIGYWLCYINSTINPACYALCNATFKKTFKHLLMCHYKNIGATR
Description: 6) Tests for bradycardia in rats
Eight- to eleven-weeks-old male rats of the Sprague-Dawley strain, weighing 300-400 g, were anesthetized with urethane (750 mg/kg, i.p.) and α-chloralose (37.5 mg/kg, i.p.). A bronchus was intubated, and the right jugular vein was cannulated for drug administration. […] To evoke bradycardia, acetylcholine (50 μg/kg, i.v.) was administered to the animals. Mean values for the acetylcholine-induced decrease in heart rate as measured five minutes before (control) and five minutes after test compound administration were calculated and the results were expressed as percentages relative to the control response. The ID50 value was calculated from the dose-response curve of the test compound using probit analysis and defined as the drug dose that inhibited the acetylcholine-induced bradycardia in the control group by 50%.

muscarinic M3 receptor [1] = biological target: T2, muscarinic M3 receptor (Rattus norvegicus, UniProt P08483); test: in vivo; parameters: from tissue; host or cells: living rat, airways; details: iv, read-out: Mydriasis ED50
Description: (§1) Tests for antagonism against muscarinic M3 receptor (in vivo)
3) Tests for mydriasis in rats
Five- to seven-weeks-old male rats of the Sprague-Dawley strain were anesthetized with pentobarbital (65 mg/kg, i.p.), and a cannula was inserted into the right jugular vein for purposes of drug administration. By using a graduated scale (pulilometer), pupillary responses to drugs were measured to the nearest 0.1 mm at the point of the greatest diameter. […] Responses were expressed as percentages of the maximal increase in pupil diameter induced by administration of atropine (30 μg/kg, i.v.). The ED50 value was calculated from the dose-response curve of the test compound using probit analysis and defined as the drug dose that induced 50% of the maximal response.

muscarinic M3 receptor [2] = test: in vivo; details: rat, i.v., Table 3
Description: as §1
(§2) 1) Tests for bronchodilation in rats
(§3) Eight- to eleven-weeks-old male rats of the Sprague-Dawley strain, weighing 300-400 g, were anesthetized with urethane (750 mg/kg, i.p.) and a-chloralose (37.5 mg/kg, i.p.). A bronchus was intubated, and the right jugular vein was cannulated for drug administration. […] To evoke an increase in airway resistance, acetylcholine (50 μg/kg, i.v.) was administered to the animals. Mean values for the acetylcholine-induced increase in airway resistance as measured five minutes before (control) and five minutes after test compound administration were calculated and the results were expressed as percentages of the control response. The ID50 value was calculated from the dose-response curve of the test compound using probit analysis and defined as the drug dose that inhibited the acetylcholine-induced increase in airway resistance in the control group by 50 %.

muscarinic M3 receptor [3] = biological target: T2, muscarinic M3 receptor; test: in vivo; parameters: from tissue; host or cells: living rat, airways; details: iv, read-out: Salivary secretion ID50
Description: as §1
2) Tests for salivary secretion in rats
Five- to seven-weeks-old male rats of the Sprague-Dawley strain were anesthetized with sodium pentobarbital (65 mg/kg, i.p.), and a cannula was inserted into the right jugular vein for purposes of drug administration. A test compound was administered intravenously. Five minutes later, carbachol (10 μg/kg, i.v.) was administered to evoke salivary secretion. For each rat, saliva collection was started immediately after carbachol administration and continued for ten minutes. This was carried out by inserting glass capillaries (Drummond, 100 μl) into the oral cavity of the rat at intervals of one minute. The amount of collected saliva was determined on the assumption that a length of 75 mm of the glass capillary corresponded to 100 μl. Physiological saline was used in the control group. The ID50 value was calculated from the dose-response curve of the test compound using probit analysis and defined as the drug dose that inhibited the carbachol-induced salivation in the control group by 50%.

muscarinic M3 receptor [4] = biological target: T2, muscarinic M3 receptor; test: Intestinal propulsion in rats (charcoal meal); assay type: in vivo; parameters: from tissue; details: i.v., 15% inhibition of intestinal propulsion
Description: as §1
5) Tests for intestinal propulsion in rats
Five- to seven-weeks-old male rats of the Sprague-Dawley strain were fasted overnight. A test compound was administered intravenously to the animals. Five minutes later, 1 ml per animal of a 5% charcoal suspension was administered orally. Thirty minutes after administration of the charcoal meal, the rats were sacrificed by decapitation, and the gastrointestinal tract was removed. The distance from the pylorus to the point of arrival of the charcoal meal was measured and the transportation rate was calculated. The ID15 value was calculated from the dose-response curve using probit analysis and defined as the drug dose that inhibited intestinal propulsion in the control group by 15%.

muscarinic M3 receptor [5] = biological target: T2, muscarinic M3 receptor; test: Intravesical bladder pressure in rats; assay type: in vivo; parameters: from tissue; details: i.v., 25% inhibition of peak intravesical bladder pressure
Description: as §1
4) Tests for intravesical bladder pressure in rats
These tests were performed according to the method of Maggi et al. (Drug Dev. Res. 10: 157-170, 1987). Briefly, eight- to ten-weeks-old male rats of the Sprague-Dawley strain, weighing 330-370 g, were anesthetized by subcutaneous administration of urethane (1 g/kg) and α-chloralose (50 mg/kg), and the right jugular vein was cannulated for drug administration. The body temperature was kept constant by means of a heating pad maintained at 37° C. Through a midline incision of the abdomen, the urinary bladder was exposed and emptied of urine by the application of a slight manual pressure. A 20-gauge needle was inserted through the apex of the bladder dome by 3-4 mm into its lumen. The needle had previously been connected to a pressure transducer and an infusion pump by means of polyethylene tubing and the whole system filled with saline. After a 30-minutes equilibration period at zero volume, saline was infused (2.8 ml/hr) until a coordinated sustained contraction, reflecting the peak intravesical bladder pressure, occured. The bladder was then emptied manually and allowed to rest for five minutes. PvesP was defined as the difference between the maximum and resting bladder pressures. This procedure was repeated at least five times and the evaluation of a test compound was carried out in the animals in which a stable peak intravesical bladder pressure was recorded. The drug potency (ID25 ) was determined after intravenous administration of the test compound during the rest period. Five minutes after drug administration, the infusion of saline was started to induce micturition contraction and the peak intravesical bladder pressure was recorded. The depression in peak intravesical bladder pressure was expressed as a percent of the control peak intravesical bladder pressure observed before administration of the test compound. The ID25 value, calculated by probit analysis, was defined as the drug dose that inhibited the control peak intravesical bladder pressure by 25%.

muscarinic M3 receptor [6] = biological target: T2, muscarinic M3 receptor; test: in vivo; parameters: from tissue; host or cells: living rat, airways; details: iv, 5 min, read-out: Airway contraction ID50
Description: as §1, §2, §3

T2 sequence (P08483 whole entry): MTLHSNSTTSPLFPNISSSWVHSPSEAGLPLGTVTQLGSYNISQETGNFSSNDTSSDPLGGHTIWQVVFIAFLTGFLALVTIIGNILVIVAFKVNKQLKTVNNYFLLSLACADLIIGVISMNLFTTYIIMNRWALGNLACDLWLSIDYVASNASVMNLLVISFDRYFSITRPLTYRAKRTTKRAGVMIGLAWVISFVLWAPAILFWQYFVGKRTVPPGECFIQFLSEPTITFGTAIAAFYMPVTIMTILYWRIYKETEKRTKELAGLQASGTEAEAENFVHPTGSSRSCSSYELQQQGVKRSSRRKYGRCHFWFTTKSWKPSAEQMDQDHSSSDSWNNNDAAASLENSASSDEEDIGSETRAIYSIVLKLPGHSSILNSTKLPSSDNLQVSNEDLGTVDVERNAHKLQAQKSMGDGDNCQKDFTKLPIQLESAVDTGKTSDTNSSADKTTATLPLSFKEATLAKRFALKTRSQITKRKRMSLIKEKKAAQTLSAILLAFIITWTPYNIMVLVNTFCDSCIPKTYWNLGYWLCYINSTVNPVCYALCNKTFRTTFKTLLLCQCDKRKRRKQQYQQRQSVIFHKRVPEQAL

Structure (SMILES)	ED50 (muscarinic M2 receptors) [µg/kg]	ED50 (muscarinic M3 receptor [1]) [µg/kg]	Activity with respect to all of the six types of responses (in words) (muscarinic M3 receptor [2])	Selectivity over the six types of responses (in words) (muscarinic M3 receptor [2])	ED50 (muscarinic M3 receptor [3]) [µg/kg]	Enterokinesis ID15 (muscarinic M3 receptor [4]) [mg/kg i.v.]	Urinating contraction ID25 (muscarinic M3 receptor [5]) [mg/kg i.v.]	ED50 (muscarinic M3 receptor [6]) [µg/kg]
CC(C)[N+]1(C)[C@@H]2CC[C@H]1C[C@@H](OC(=O)C(CO)c1ccccc1)C2 (stereo partly shown) [Ipratropium]	1.8	4.1	potent activities	non-selective	1.8	0.004	0.0048	1.5
CN1[C@@H]2CC[C@H]1C[C@@H](OC(=O)C(CO)c1ccccc1)C2 (stereo partly shown) [Atropine]	3.7	18	potent activities	non-selective	2.2	0.019	0.027	4.3
